ChEMBL document CHEMBL1201862, “PubChem BioAssay data set” (2004)
Active and inactive are the calls of the source.

What was measured:
[1] = target: T1, RNA-binding protein pos-1 (Caenorhabditis elegans, UniProt G5EF15); test: disruptors of C. elegans POS-1 RNA interaction – biochemical, fluorescence polarization, dose response (AID 1964);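 note: purified POS-1 fused to maltose binding protein made in E. coli; potency of compounds blocking POS-1 binding to fluorescent RNA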
T1 sequence (G5EF15 whole entry): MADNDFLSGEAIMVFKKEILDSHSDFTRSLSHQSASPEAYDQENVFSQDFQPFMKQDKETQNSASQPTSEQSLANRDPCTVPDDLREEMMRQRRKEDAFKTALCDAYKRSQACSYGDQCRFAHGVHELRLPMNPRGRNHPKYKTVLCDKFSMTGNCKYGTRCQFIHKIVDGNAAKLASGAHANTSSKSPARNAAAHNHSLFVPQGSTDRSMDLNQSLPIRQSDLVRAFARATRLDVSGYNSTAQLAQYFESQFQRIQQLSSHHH

[2] = target: G-protein coupled receptor 35 (Homo sapiens, UniProt Q9HC97); test: inhibition of zaprinast-stimulated GPR35 beta-arrestin translocation – imaging, U2OS, beta-arrestin-GFP, zaprinast agonist, primary screen (AID 2058); type: functional;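 note: antagonist potency meaning inhibition of agonist-induced arrestin redistribution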
Sequence of G-protein coupled receptor 35 (Q9HC97 whole entry): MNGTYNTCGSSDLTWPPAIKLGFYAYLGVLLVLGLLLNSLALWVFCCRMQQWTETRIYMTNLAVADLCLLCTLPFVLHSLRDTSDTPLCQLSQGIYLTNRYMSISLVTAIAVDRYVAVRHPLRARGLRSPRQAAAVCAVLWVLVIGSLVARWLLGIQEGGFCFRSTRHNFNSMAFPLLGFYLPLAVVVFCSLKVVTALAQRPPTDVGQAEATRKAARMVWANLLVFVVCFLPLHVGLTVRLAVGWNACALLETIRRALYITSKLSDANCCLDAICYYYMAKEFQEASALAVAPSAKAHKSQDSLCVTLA

[3] = reduction of Shn3 3'UTR-driven luciferase in osteoblasts – cell-based, Clone20 osteoblasts, firefly luciferase, cherry-picked, dose response (AID 624132); type: functional;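 note: firefly luciferase luminescence from reporter carrying the Shn3 3'UTR in osteoblasts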
[4] = target: T2, Zinc finger protein mex-5 (Caenorhabditis elegans, UniProt Q9XUB2); test: potency of MEX-5 RNA-binding blockers – biochemical, C. elegans, fluorescence polarization, dose response (AID 1960)
T2 sequence (Q9XUB2 whole entry): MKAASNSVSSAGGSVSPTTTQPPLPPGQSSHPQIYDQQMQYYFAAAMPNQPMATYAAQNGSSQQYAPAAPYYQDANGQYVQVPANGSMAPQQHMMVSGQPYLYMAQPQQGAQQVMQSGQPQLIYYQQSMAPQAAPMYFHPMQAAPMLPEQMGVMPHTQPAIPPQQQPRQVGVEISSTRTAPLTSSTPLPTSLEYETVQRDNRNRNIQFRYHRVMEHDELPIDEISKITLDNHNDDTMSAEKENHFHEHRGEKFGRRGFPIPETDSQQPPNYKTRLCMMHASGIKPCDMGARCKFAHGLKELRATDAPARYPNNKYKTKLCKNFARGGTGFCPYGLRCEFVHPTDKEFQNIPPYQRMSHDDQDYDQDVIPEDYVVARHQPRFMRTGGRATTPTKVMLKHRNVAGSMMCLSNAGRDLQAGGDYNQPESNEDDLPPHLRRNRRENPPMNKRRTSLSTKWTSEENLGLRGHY

[5] = fluconazole-exposed Candida albicans growth modulators – fluorescence, retest, confirmation (AID 2467); type: functional, cell-based
[6] = target: T3, Apoptotic protease-activating factor 1 (Homo sapiens, UniProt O14727); type: functional
T3 sequence (O14727 whole entry): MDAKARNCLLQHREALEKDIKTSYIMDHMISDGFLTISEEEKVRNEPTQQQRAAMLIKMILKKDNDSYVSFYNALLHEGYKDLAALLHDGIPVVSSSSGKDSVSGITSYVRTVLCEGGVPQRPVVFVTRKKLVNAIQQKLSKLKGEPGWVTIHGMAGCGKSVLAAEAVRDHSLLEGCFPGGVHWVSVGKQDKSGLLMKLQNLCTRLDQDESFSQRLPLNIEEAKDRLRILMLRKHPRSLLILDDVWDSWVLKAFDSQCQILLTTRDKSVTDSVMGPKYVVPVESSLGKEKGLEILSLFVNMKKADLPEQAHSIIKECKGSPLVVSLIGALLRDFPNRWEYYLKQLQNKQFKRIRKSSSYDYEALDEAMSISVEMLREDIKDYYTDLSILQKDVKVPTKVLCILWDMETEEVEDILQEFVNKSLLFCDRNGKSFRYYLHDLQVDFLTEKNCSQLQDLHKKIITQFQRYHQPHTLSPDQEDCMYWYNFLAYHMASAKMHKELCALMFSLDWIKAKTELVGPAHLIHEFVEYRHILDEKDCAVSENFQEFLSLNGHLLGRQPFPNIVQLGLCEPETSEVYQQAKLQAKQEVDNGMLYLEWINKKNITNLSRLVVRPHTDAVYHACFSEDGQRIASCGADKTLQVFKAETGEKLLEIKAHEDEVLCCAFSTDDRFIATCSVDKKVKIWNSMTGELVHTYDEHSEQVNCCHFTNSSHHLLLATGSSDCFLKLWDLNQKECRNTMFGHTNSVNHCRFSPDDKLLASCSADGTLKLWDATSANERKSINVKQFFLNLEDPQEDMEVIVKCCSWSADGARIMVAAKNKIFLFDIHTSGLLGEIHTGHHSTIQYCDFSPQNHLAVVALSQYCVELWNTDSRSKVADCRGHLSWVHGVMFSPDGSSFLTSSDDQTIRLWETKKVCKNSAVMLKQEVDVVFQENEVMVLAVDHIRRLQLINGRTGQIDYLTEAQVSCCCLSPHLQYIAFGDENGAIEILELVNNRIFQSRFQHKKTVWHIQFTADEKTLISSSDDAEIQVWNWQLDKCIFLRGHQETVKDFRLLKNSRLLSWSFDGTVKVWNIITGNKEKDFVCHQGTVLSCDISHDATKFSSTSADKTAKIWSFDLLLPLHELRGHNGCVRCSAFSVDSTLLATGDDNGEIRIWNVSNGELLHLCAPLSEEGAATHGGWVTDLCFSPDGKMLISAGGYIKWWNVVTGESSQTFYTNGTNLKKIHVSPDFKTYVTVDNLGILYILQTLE

[7] = non-specific 3'UTR reporter inhibition in Clone20-Shn3RL – cell-based, Renilla luciferase, cherry-picked, counter-screen for Shn3 inhibitor project, dose response (AID 624133); type: functional
[8] = target: Caspase-8 (Homo sapiens, UniProt Q14790); test: inhibitors of purified CASP8 protease – biochemical, Z-IETD-R110 fluorescence, cherry-picked samples, selectivity assay for caspase-6 inhibitor project, dose response (AID 743294)
Sequence of Caspase-8 (Q14790 217-374 limits assumed): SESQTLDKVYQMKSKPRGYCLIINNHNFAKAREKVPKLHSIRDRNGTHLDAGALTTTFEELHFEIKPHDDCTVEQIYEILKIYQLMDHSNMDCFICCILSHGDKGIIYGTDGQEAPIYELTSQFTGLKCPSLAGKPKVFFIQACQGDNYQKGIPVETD
Sequence of Caspase-8 (Q14790 385-479 limits assumed): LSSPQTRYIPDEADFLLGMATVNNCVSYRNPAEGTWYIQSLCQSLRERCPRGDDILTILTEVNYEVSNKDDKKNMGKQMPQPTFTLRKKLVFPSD

[9] = loss of viability in HepG2 cells – cell-based, CellTiter-Glo, cherry-picked, cytotoxicity control for Shn3 inhibitor project, dose response (AID 624134); type: functional
[10] = target: T4, Caspase-3 (Homo sapiens, UniProt P42574); test: human caspase-3 protease activity blockade – biochemical, fluorescence, cherry-picked samples, selectivity assay for caspase-6 allosteric inhibitor project, dose response (AID 743291)
T4 sequence (P42574 whole entry): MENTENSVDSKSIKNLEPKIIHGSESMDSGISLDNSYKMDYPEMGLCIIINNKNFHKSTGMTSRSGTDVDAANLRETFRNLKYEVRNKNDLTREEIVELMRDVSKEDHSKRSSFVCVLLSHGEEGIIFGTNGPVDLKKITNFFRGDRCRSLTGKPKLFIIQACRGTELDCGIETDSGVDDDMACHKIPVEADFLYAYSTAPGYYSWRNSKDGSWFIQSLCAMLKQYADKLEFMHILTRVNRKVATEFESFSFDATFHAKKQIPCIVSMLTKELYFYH

[11] = target: T5, Caspase-6 (Homo sapiens, UniProt P55212); test: inhibition of CASP6 peptide cleavage – biochemical, VEID-R110 fluorescence, cherry-pick, dose response (AID 720632)
T5 sequence (P55212 whole entry): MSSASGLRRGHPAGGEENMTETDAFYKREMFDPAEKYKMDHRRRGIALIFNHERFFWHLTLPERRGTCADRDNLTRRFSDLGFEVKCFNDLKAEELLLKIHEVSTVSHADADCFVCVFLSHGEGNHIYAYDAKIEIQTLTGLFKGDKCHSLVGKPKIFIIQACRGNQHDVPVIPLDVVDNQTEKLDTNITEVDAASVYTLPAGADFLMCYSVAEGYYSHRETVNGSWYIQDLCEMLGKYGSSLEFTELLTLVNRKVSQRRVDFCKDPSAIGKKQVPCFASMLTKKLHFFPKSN

[12] = target: T6, Caspase-7 (Homo sapiens, UniProt P55210); test: caspase-7 enzyme inhibition, selectivity check – biochemical, DEVD-R110 fluorescence, cherry-pick, selectivity assay for caspase-6 inhibitor project, dose response (AID 743295); type: functional
T6 sequence (P55210 whole entry): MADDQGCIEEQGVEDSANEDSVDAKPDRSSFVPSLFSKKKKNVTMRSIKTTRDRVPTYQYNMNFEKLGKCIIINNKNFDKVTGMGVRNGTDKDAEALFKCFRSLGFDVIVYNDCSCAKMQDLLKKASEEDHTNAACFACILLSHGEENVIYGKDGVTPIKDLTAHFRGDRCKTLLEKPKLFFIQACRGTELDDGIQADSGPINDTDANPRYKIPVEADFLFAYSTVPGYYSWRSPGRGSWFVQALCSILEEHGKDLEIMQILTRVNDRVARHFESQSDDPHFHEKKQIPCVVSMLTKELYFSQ

[13] = NIH-3T3 fibroblast cytotoxicity, dose response, cytotoxicity control, cell-based, fluorescence, Alamar Blue, secondary assay (AID 2327); type: functional;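 note: NIH-3T3 mouse fibroblasts cultured with fluconazole at 8 µg/mL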
[14] = target: T6, Caspase-7; test: potency of procaspase-7 enzyme activation – biochemical, absorbance, human, dual procaspase-3/-7 activator project, dose response (AID 504330)
[15] = target: Cytochrome P450 2D6 (Homo sapiens, UniProt P10635);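 note: CYP2D6 member of a cytochrome P450 panel assay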
Sequence of Cytochrome P450 2D6 (P10635 whole entry, the tested form may be a part): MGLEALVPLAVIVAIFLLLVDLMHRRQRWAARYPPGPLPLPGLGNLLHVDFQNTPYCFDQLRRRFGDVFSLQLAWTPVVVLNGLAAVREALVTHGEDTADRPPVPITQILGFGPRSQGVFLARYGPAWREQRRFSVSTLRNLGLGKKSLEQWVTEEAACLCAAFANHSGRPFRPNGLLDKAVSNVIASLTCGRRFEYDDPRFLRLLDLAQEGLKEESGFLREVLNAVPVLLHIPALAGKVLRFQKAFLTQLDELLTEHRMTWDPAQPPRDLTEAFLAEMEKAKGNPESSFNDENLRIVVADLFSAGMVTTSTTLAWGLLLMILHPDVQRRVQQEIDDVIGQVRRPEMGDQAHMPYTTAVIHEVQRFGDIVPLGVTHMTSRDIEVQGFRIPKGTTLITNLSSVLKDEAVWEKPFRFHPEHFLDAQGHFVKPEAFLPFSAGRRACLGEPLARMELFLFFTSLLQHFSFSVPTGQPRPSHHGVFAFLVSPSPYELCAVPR

[16] = blockers of HIV-1 envelope-mediated cell-cell fusion – cherry-pick, dose response (AID 652057); type: functional, cell-based
[17] = target: T4, Caspase-3; test: activators of human procaspase-3 D3A mutant – biochemical, absorbance, PC-3 D3A mutant, counter-screen for dual procaspase-3/7 activator project, dose response (AID 504328)
[18] = target: Potassium voltage-gated channel subfamily KQT member 2 (Rattus norvegicus, UniProt O88943); test: potentiation of rat KCNQ2 current – cell-based, retigabine-insensitive compounds, dose response (AID 2654); type: functional
Sequence of Potassium voltage-gated channel subfamily KQT member 2 (O88943 whole entry): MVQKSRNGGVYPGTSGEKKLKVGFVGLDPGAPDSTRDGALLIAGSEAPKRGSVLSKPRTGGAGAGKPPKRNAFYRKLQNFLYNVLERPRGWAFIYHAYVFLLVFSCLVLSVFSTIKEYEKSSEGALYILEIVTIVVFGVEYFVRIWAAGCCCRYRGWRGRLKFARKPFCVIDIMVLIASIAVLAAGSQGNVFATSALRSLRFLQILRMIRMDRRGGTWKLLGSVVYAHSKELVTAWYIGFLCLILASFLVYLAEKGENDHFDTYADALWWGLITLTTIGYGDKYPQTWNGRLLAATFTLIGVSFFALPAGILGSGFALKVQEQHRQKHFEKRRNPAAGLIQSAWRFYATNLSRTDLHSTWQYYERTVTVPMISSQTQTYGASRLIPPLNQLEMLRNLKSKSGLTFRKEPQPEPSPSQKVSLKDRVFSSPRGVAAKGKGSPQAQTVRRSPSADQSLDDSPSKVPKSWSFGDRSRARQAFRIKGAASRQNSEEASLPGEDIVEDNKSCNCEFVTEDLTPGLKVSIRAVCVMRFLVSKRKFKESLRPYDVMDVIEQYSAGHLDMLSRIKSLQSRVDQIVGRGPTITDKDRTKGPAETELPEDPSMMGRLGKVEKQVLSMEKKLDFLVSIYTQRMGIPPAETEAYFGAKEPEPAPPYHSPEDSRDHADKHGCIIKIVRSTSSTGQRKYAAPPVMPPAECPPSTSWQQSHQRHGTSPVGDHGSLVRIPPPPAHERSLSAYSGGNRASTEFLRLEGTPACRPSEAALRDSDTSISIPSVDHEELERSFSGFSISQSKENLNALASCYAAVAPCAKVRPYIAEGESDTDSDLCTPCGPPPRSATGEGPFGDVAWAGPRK

[19] = target: Genome polyprotein (dengue virus type 2, UniProt P29990); test: flavivirus cap methylation enzyme inhibition – biochemical, confirmation dose response, primary screen (AID 588689); type: functional
Sequence of Genome polyprotein (P29990 2492-3391 limits assumed): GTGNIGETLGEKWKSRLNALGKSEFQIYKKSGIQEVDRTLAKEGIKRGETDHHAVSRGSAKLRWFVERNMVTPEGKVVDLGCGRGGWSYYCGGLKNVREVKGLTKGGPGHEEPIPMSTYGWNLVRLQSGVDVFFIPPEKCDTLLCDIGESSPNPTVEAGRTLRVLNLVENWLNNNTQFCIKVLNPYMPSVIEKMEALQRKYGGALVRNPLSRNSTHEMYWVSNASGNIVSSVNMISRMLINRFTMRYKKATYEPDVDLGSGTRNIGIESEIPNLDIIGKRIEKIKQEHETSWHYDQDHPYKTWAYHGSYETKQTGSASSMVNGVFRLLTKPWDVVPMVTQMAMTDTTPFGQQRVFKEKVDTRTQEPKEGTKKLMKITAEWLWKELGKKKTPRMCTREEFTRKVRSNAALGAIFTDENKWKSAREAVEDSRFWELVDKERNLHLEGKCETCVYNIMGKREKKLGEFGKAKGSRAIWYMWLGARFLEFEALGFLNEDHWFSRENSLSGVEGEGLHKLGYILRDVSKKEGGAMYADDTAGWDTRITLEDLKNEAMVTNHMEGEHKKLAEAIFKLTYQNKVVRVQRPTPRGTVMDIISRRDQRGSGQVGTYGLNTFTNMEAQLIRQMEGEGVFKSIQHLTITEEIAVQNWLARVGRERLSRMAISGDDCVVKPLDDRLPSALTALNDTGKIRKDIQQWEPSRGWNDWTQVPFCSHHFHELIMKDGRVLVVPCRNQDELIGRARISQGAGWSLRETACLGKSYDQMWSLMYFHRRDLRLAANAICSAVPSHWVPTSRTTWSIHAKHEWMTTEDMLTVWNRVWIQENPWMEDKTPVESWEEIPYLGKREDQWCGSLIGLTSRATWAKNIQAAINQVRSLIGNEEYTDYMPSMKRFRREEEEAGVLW

[20] = target: T7, Long-chain-fatty-acid--AMP ligase FadD28 (Mycobacterium tuberculosis, UniProt P9WQ59); test: Fluorescence polarization aasay to screen for inhibitors that compete for the binding of FadD28 to a bisubstrate Measured in Biochemical System Using Plate Reader - 2147-01_Inhibitor_Dose_CherryPick_Activity.; type: functional, Mycobacterium tuberculosis H37Rv
T7 sequence (P9WQ59 whole entry): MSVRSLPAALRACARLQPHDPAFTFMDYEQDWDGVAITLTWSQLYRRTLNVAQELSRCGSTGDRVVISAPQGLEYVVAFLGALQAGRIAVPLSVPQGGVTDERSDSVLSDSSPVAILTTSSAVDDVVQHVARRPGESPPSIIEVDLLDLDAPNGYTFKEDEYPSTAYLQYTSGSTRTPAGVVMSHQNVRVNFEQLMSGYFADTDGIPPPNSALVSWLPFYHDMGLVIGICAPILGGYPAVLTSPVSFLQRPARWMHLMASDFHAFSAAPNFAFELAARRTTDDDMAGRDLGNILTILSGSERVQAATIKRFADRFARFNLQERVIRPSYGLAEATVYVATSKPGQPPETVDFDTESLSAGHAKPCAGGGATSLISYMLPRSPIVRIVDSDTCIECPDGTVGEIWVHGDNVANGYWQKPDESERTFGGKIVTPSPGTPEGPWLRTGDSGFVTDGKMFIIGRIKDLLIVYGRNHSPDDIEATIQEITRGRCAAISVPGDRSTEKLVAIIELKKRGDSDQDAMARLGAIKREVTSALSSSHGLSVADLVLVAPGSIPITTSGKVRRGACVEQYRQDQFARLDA

[21] = target: Female germline-specific tumor suppressor gld-1 (Caenorhabditis elegans, UniProt Q17339); test: blockers of GLD-1/TGE RNA complex formation – biochemical, fluorescence polarization, C. elegans, dose response (AID 2802);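 note: fluorescence polarization of labeled TGE RNA bound by purified gld-1 protein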
Sequence of Female germline-specific tumor suppressor gld-1 (Q17339 whole entry): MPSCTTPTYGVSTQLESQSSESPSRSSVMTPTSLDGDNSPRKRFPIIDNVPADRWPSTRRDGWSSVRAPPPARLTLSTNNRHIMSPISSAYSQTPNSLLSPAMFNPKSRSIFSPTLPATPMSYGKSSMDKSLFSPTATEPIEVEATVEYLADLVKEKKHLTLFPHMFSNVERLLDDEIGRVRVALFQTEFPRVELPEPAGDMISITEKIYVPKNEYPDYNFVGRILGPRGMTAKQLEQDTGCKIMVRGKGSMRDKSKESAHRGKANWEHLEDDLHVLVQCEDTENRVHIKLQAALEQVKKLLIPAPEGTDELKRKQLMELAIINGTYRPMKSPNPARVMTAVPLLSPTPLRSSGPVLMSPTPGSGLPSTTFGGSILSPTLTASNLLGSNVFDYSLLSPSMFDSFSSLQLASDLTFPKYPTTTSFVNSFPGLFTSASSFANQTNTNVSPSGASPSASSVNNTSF

[22] = target: Protein Rev (Human immunodeficiency virus type 1 group M subtype B (isolate HXB2)(HIV-1), UniProt P04618); test: blockers of HIV Rev/RRE RNA complex – biochemical, fluorescence polarization, HIV-1, dose response (AID 434976); parameters: species or system Human immunodeficiency virus 1
Sequence of Protein Rev (P04618 whole entry): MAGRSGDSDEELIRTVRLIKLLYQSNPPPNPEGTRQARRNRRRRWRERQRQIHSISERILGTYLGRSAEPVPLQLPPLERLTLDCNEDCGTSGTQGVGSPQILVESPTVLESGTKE

[23] = target: 14-3-3 protein gamma (Homo sapiens, UniProt P61981); test: modulators of 14-3-3 gamma client binding – dose response (AID 711); type: functional
Sequence of 14-3-3 protein gamma (P61981 whole entry): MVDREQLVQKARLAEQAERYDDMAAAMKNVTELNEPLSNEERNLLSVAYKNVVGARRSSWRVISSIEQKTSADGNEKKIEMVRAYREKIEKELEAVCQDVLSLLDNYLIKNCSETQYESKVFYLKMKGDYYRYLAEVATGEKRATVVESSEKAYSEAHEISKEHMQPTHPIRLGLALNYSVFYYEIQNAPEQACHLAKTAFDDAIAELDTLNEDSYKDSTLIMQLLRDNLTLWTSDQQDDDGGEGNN

For CCOc1ccc2nc3cc(NCc4ccc(OC)cc4)ccc3c(N)c2c1, the EC50 [1] was 4.47 µM (active), the IC50 [2] was 15.3 µM (inactive) and the AC50 [3] was 6.69 µM (active). For the same compound, the EC50 [4] was 3.94 µM (active), the EC50 [5] was 2.76 µM (active) and the IC50 [6] was 23.5 µM (active). For the same compound, the AC50 [7] was 23 µM (active), the AC50 [8] was 25.9 µM (active) and the AC50 [9] was 16.5 µM (active). The AC50 [10] was 21.2 µM (active), the AC50 [11] was 4.3 µM (active) and the AC50 [12] was 9.75 µM (active). The EC50 [13] was > 150 µM (inconclusive).

For COc1ccc(Nc2ncc(C(=O)N3CCN(c4ccc(F)cc4)CC3)c3ccccc23)cc1, the EC50 [14] was > 85.2 µM (inactive), the AC50 [15] was 31.6 µM (inconclusive) and the AC50 [16] was 49 µM (active). The EC50 [17] was > 85.2 µM (inactive).

For Cc1ccc(NC(=O)Nc2cccnc2)cc1, the EC50 [18] was 128 µM (active).

For CCn1c(CSc2nnc3ccccn23)nc2cc(C(=O)O)ccc21, the IC50 [19] was 23.2 µM (active), the AC50 [20] was 50.1 µM (active) and the IC50 [21] was 11.2 µM (inactive). The IC50 [22] was > 75.4 µM (not active) and the IC50 [23] was 0.853 µM (active).
